Results: patent US7138361B2, “Herbicidal heterocycles” (E. I. du Pont de Nemours and Company, priority 2000, dated 2006)

Columns and labels:
Assay in all cases: Test C preemergence
Format in all cases: in vivo
Nightshade [1] = test system: Nightshade
Sunflower = conditions: Rate 125 g/ha; scale 0 to 100, 0 no effect, 100 complete control
[2] = test system: Surinam grass (Brachiaria decumbens); conditions: for Plant response rating (0 to 100), Surinam grass: Rate 500 g/ha, visual evaluation after 12 to 14 days
Summary of the method: (§1)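 Visual injury scores of 0–100, with 100 meaning complete control, were given relative to controls after 12–14 days in the greenhouse. Treatments used a surfactant-containing non-phytotoxic solvent formulation, sprayed on seeded pots preemergence or on 1–4-leaf plants of 2–18 cm postemergence.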

[3] = test system: bermudagrass (Cynodon dactylon); conditions: for Plant response rating (0 to 100 where 0 is no effect and 100 is complete control), Bermudagrass: Rate 500 g/ha, visual evaluation after 12 to 14 days
Summary of the method: as §1

[4] = test system: cocklebur (Xanthium strumarium); conditions: for Plant response rating (0 to 100), Cocklebur: Rate 500 g/ha, visual evaluation after 12 to 14 days
Summary of the method: as §1

[5] = test system: common ragweed (Ambrosia elatior); conditions: for Plant response rating (0 to 100), Ragweed, Common: Rate 500 g/ha, visual evaluation after 12 to 14 days
Summary of the method: as §1

corn (Zea mays) = conditions: for Plant response rating (0 to 100), Corn: Rate 500 g/ha, visual evaluation after 12 to 14 days
Summary of the method: as §1

[6] = test system: crabgrass (Digitaria sanguinalis); conditions: for Plant response rating (0 to 100), Crabgrass: Rate 500 g/ha, visual evaluation after 12 to 14 days
Summary of the method: as §1

[7] = test system: giant foxtail (Setaria faberii); conditions: for Plant response rating (0 to 100), Foxtail, Giant: Rate 500 g/ha, visual evaluation after 12 to 14 days
Summary of the method: as §1

[8] = test system: goosegrass (Eleusine indica); conditions: for Plant response rating (0 to 100), Goosegrass: Rate 500 g/ha, visual evaluation after 12 to 14 days
Summary of the method: as §1

[9] = test system: johnsongrass (Sorghum halepense); conditions: for Plant response rating (0 to 100), Johnsongrass: Rate 500 g/ha, visual evaluation after 12 to 14 days
Summary of the method: as §1

kochia (Kochia scoparia) = conditions: for Plant response rating (0 to 100), Kochia: Rate 500 g/ha, visual evaluation after 12 to 14 days
Summary of the method: as §1

[10] = test system: lambsquarters (Chenopodium album); conditions: for Plant response rating (0 to 100), Lambsquarters: Rate 500 g/ha, visual evaluation after 12 to 14 days
Summary of the method: as §1

[11] = test system: morningglory (Ipomoea hederacea); conditions: for Plant response rating (0 to 100), Morningglory: Rate 500 g/ha, visual evaluation after 12 to 14 days
Summary of the method: as §1

[12] = test system: pigweed (Amaranthus retroflexus); conditions: for Plant response rating (0 to 100), Pigweed: Rate 500 g/ha, visual evaluation after 12 to 14 days
Summary of the method: as §1

soybean (Glycine max) = conditions: for Plant response rating (0 to 100), Soybean: Rate 500 g/ha, visual evaluation after 12 to 14 days
Summary of the method: as §1

[13] = test system: velvetleaf (Abutilon theophrasti); conditions: for Plant response rating (0 to 100), Velvetleaf: Rate 500 g/ha, visual evaluation after 12 to 14 days
Summary of the method: as §1

[14] = test system: woolly cupgrass (Eriochloa villosa); conditions: for Plant response rating (0 to 100), Cupgrass, Woolly: Rate 500 g/ha, visual evaluation after 12 to 14 days
Summary of the method: as §1

[15] = test system: yellow nutsedge (Cyperus esculentus); conditions: for Plant response rating (0 to 100), Nutsedge: Rate 500 g/ha, visual evaluation after 12 to 14 days
Summary of the method: as §1

Nightshade [16] = conditions: Rate 500 g/ha, visual evaluation after 12 to 14 days
[17] = Rate 125 g/ha, scale 0 to 100, 0 no effect, 100 complete control
[18] = Rate 250 g/ha, scale 0 to 100, 0 no effect, 100 complete control
[19] = preemergence, Rate 62 g/ha, scale 0 to 100
[20] = preemergence, Rate 250 g/ha, scale 0 to 100, 0 no effect, 100 complete control

CCCOc1cc(N2CCC(n3ccc(C(C)(C)C)n3)C2=O)ccc1C (stereo not shown) [Compound 107]
Plant response rating, Nightshade (Nightshade [1]; Rate 62 g/ha, scale 0 to 100): 80
Plant response rating, Nightshade (Nightshade [1]; [17]): 90
Plant response rating, Nightshade (Nightshade [1]; [18]): 90
Plant response rating, Sunflower (Sunflower): 0
Plant response rating, Surinam grass [2, 17]: 0
Plant response rating, Surinam grass [2, 19]: 0
Plant response rating (0 to 100), Surinam grass ([2]; preemergence): 0
Plant response rating, Surinam grass [2, 20]: 0
Plant response rating, Bermudagrass [3, 17]: 100
Plant response rating, Bermudagrass [3, 19]: 85
Plant response rating (0 to 100 where 0 is no effect and 100 is complete control), Bermudagrass ([3]; preemergence): 100
Plant response rating, Bermudagrass [3, 20]: 100
Plant response rating, Cocklebur [4, 17]: 0
Plant response rating, Cocklebur [4, 19]: 0
Plant response rating (0 to 100), Cocklebur ([4]; preemergence): 0
Plant response rating, Cocklebur [4, 20]: 0
Plant response rating, Ragweed, Common [5, 17]: 30
Plant response rating, Ragweed, Common [5, 19]: 0
Plant response rating (0 to 100), Ragweed, Common ([5]; preemergence): 70
Plant response rating, Ragweed, Common [5, 20]: 60
Plant response rating, Corn (corn (Zea mays); [17]): 0
Plant response rating, Corn (corn (Zea mays); [19]): 0
Plant response rating (0 to 100), Corn (corn (Zea mays); preemergence): 10
Plant response rating, Corn (corn (Zea mays); [20]): 0
Plant response rating, Crabgrass [6, 17]: 100
Plant response rating, Crabgrass [6, 19]: 100
Plant response rating (0 to 100), Crabgrass ([6]; preemergence): 100
Plant response rating, Crabgrass [6, 20]: 100
Plant response rating, Foxtail, Giant [7, 17]: 100
Plant response rating, Foxtail, Giant [7, 19]: 100
Plant response rating (0 to 100), Foxtail, Giant ([7]; preemergence): 100
Plant response rating, Foxtail, Giant [7, 20]: 100
Plant response rating, Goosegrass [8, 17]: 70
Plant response rating, Goosegrass [8, 19]: 10
Plant response rating (0 to 100), Goosegrass ([8]; preemergence): 100
Plant response rating, Goosegrass [8, 20]: 80
Plant response rating, Johnsongrass [9, 17]: 20
Plant response rating (0 to 100), Johnsongrass ([9]; preemergence): 50
Plant response rating, Johnsongrass [9, 20]: 50
Plant response rating, Kochia (kochia (Kochia scoparia); [17]): 70
Plant response rating, Kochia (kochia (Kochia scoparia); [19]): 70
Plant response rating (0 to 100), Kochia (kochia (Kochia scoparia); preemergence): 100
Plant response rating, Kochia (kochia (Kochia scoparia); [20]): 85
Plant response rating, Lambsquarters [10, 17]: 100
Plant response rating, Lambsquarters [10, 19]: 90
Plant response rating (0 to 100), Lambsquarters ([10]; preemergence): 100
Plant response rating, Lambsquarters [10, 20]: 100
Plant response rating, Morningglory [11, 17]: 0
Plant response rating, Morningglory [11, 19]: 0
Plant response rating (0 to 100), Morningglory ([11]; preemergence): 100
Plant response rating, Morningglory [11, 20]: 0
Plant response rating, Pigweed [12, 17]: 0
Plant response rating, Pigweed [12, 19]: 90
Plant response rating (0 to 100), Pigweed ([12]; preemergence): 100
Plant response rating, Pigweed [12, 20]: 0
Plant response rating, Soybean (soybean (Glycine max); [17]): 30
Plant response rating, Soybean (soybean (Glycine max); [19]): 30
Plant response rating (0 to 100), Soybean (soybean (Glycine max); preemergence): 60
Plant response rating, Soybean (soybean (Glycine max); [20]): 40
Plant response rating, Velvetleaf [13, 17]: 50
Plant response rating, Velvetleaf [13, 19]: 40
Plant response rating (0 to 100), Velvetleaf ([13]; preemergence): 100
Plant response rating, Velvetleaf [13, 20]: 50
Plant response rating, Cupgrass, Woolly [14, 17]: 60
Plant response rating, Cupgrass, Woolly [14, 19]: 50
Plant response rating (0 to 100), Cupgrass, Woolly ([14]; preemergence): 80
Plant response rating, Cupgrass, Woolly [14, 20]: 80
Plant response rating, Nutsedge [15, 17]: 0
Plant response rating, Nutsedge [15, 19]: 0
Plant response rating (0 to 100), Nutsedge ([15]; preemergence): 0
Plant response rating, Nutsedge [15, 20]: 0
Plant response rating (0 to 100), Nightshade (Nightshade [16]): 90

CC(C)c1cccc(N2CCC(n3ccc(C(C)(C)C)n3)C2=O)c1 (stereo not shown) [Compound 111]
Plant response rating, Nightshade (Nightshade [1]; Rate 62 g/ha, scale 0 to 100): 0
Plant response rating, Nightshade (Nightshade [1]; [17]): 0
Plant response rating, Nightshade (Nightshade [1]; [18]): 0
Plant response rating, Sunflower (Sunflower): 0
Plant response rating, Surinam grass [2, 17]: 0
Plant response rating, Surinam grass [2, 19]: 0
Plant response rating (0 to 100), Surinam grass ([2]; preemergence): 10
Plant response rating, Surinam grass [2, 20]: 0
Plant response rating, Bermudagrass [3, 17]: 90
Plant response rating, Bermudagrass [3, 19]: 60
Plant response rating (0 to 100 where 0 is no effect and 100 is complete control), Bermudagrass ([3]; preemergence): 100
Plant response rating, Bermudagrass [3, 20]: 100
Plant response rating, Cocklebur [4, 17]: 0
Plant response rating, Cocklebur [4, 19]: 0
Plant response rating (0 to 100), Cocklebur ([4]; preemergence): 0
Plant response rating, Cocklebur [4, 20]: 0
Plant response rating, Ragweed, Common [5, 17]: 0
Plant response rating, Ragweed, Common [5, 19]: 0
Plant response rating (0 to 100), Ragweed, Common ([5]; preemergence): 0
Plant response rating, Ragweed, Common [5, 20]: 0
Plant response rating, Corn (corn (Zea mays); [17]): 0
Plant response rating, Corn (corn (Zea mays); [19]): 0
Plant response rating (0 to 100), Corn (corn (Zea mays); preemergence): 0
Plant response rating, Corn (corn (Zea mays); [20]): 0
Plant response rating, Crabgrass [6, 17]: 100
Plant response rating, Crabgrass [6, 19]: 80
Plant response rating (0 to 100), Crabgrass ([6]; preemergence): 100
Plant response rating, Crabgrass [6, 20]: 100
Plant response rating, Foxtail, Giant [7, 17]: 0
Plant response rating, Foxtail, Giant [7, 19]: 0
Plant response rating (0 to 100), Foxtail, Giant ([7]; preemergence): 80
Plant response rating, Foxtail, Giant [7, 20]: 30
Plant response rating, Goosegrass [8, 17]: 85
Plant response rating, Goosegrass [8, 19]: 40
Plant response rating (0 to 100), Goosegrass ([8]; preemergence): 100
Plant response rating, Goosegrass [8, 20]: 100
Plant response rating, Johnsongrass [9, 17]: 0
Plant response rating, Johnsongrass [9, 19]: 0
Plant response rating (0 to 100), Johnsongrass ([9]; preemergence): 25
Plant response rating, Johnsongrass [9, 20]: 0
Plant response rating, Kochia (kochia (Kochia scoparia); [17]): 0
Plant response rating, Kochia (kochia (Kochia scoparia); [19]): 0
Plant response rating (0 to 100), Kochia (kochia (Kochia scoparia); preemergence): 0
Plant response rating, Kochia (kochia (Kochia scoparia); [20]): 0
Plant response rating, Lambsquarters [10, 17]: 85
Plant response rating, Lambsquarters [10, 19]: 70
Plant response rating (0 to 100), Lambsquarters ([10]; preemergence): 100
Plant response rating, Lambsquarters [10, 20]: 100
Plant response rating, Morningglory [11, 17]: 0
Plant response rating, Morningglory [11, 19]: 0
Plant response rating (0 to 100), Morningglory ([11]; preemergence): 0
Plant response rating, Morningglory [11, 20]: 0
Plant response rating, Pigweed [12, 17]: 20
Plant response rating, Pigweed [12, 19]: 80
Plant response rating (0 to 100), Pigweed ([12]; preemergence): 50
Plant response rating, Pigweed [12, 20]: 20
Plant response rating, Soybean (soybean (Glycine max); [17]): 0
Plant response rating, Soybean (soybean (Glycine max); [19]): 0
Plant response rating (0 to 100), Soybean (soybean (Glycine max); preemergence): 0
Plant response rating, Soybean (soybean (Glycine max); [20]): 0
Plant response rating, Velvetleaf [13, 17]: 0
Plant response rating, Velvetleaf [13, 19]: 0
Plant response rating (0 to 100), Velvetleaf ([13]; preemergence): 0
Plant response rating, Velvetleaf [13, 20]: 0
Plant response rating, Cupgrass, Woolly [14, 17]: 20
Plant response rating, Cupgrass, Woolly [14, 19]: 0
Plant response rating (0 to 100), Cupgrass, Woolly ([14]; preemergence): 60
Plant response rating, Cupgrass, Woolly [14, 20]: 60
Plant response rating, Nutsedge [15, 17]: 0
Plant response rating, Nutsedge [15, 19]: 0
Plant response rating (0 to 100), Nutsedge ([15]; preemergence): 0
Plant response rating, Nutsedge [15, 20]: 0
Plant response rating (0 to 100), Nightshade (Nightshade [16]): 0
